The text below walks through data of patent publication US20070117770A1, “Human ribosomal DNA (rDNA) and ribosomal RNA (rRNA) nucleic acids and uses thereof” (Cylene Pharmaceuticals, Inc., priority 2005, published 2007).

Holding throughout (experiment): Protein kinase inhibition assay
One assay deals with MKK4(m) (Mus musculus, UniProt P47809). It is filed as biochemical. To be noted: read-out: percent residual activity of MKK4(m). Here is the method: (§1) Certain compounds were tested for activity in protein kinase inhibition assays. All substrates were dissolved and diluted to working stocks in de-ionized water, apart from histone H1 (10× working stock in 20 mM MOPS pH 7.0), PDKtide (10× working stock in 50 mM Tris pH 7.0) ATF2 (which is typically stored at a 20× working stock in 50 mM Tris pH 7.5, 150 mM NaCl, 0.1 mM EGTA, 0.03% Brij-35, 50% glycerol, 1 mM benzamidine, 0.2 mM PMSF and 0.1% R-mercaptoethanol), KKLNRTLSFAEPG (SEQ ID NO:203) and RRRLSFAEPG (SEQ ID NO:204) (50 mM HEPES pH 7.4) and GGEEEEYFELVKKKK (SEQ ID NO:205) (20 mM MOPS pH 7.0). All kinases were pre-diluted to a 10× working concentration prior to addition into the assay. The composition of the dilution buffer for each kinase is detailed below.
The reaction is initiated by the addition of the MGATP. After incubation for 40 minutes at room temperature, 5 μl of this incubation mix is used to initiate a JNK1α1 (h) assay, which is exactly as described on page 11 of this book except that ATF2 is replaced with 250 μM peptide.

In the next assay the target is Plk3(h) (Homo sapiens, UniProt Q9H4B4). It is filed as biochemical. To be noted: read-out: percent residual activity of Plk3(h). Here is the method: as §1
(§2) In a final reaction volume of 25 μl, Plk3 (h) (5-10 mU) is incubated with 8 mM MOPS pH 7.0, 0.2 mM EDTA, 2 mg/ml casein, 10 mM MgAcetate and [gamma-33P-ATP] (specific activity approx. 500 cpm/pmol, concentration as required). The reaction is initiated by the addition of the MgATP mix. After incubation for 40 minutes at room temperature, the reaction is stopped by the addition of 5 μl of a 3% phosphoric acid solution. 10 μl of the reaction is then spotted onto a P30 filtermat and washed three times for 5 minutes in 75 mM phosphoric acid and once in methanol prior to drying and scintillation counting.

The next assay has as its target ROCK-II(h) (Homo sapiens, UniProt O75116). It is filed as biochemical. To be noted: read-out: percent residual activity of ROCK-II(h). The protocol:
as §1
as §2, with “ROCK-II” for “Plk3”, “50” for “8”, “Tris” for “MOPS”, “7.5, […] EGTA, 30 μM […] (SEQ ID NO:222),” for “7.0, 0.2 mM EDTA, 2 mg/ml casein,”, “[y-33P-ATP]” for “[gamma-33P-ATP]”

Another assay relates to p70S6K(h). Format: biochemical, human. To be noted: 2.5 μM. The protocol: as §1
as §2, with “p70S6K” for “Plk3”, “100 μM KKRNRTLTV (SEQ ID NO:212),” for “2 mg/ml casein,”

For the next assay, the target named is cKit(h) (Homo sapiens, UniProt P10721). It is filed as biochemical. To be noted: read-out: percent residual activity of cKit(h). Here is the method:
as §1
as §2, with “μl, cKit” for “μl, Plk3”, “EDTA, 10 mM MnCl2, 0.1” for “EDTA, 2”, “mg/ml poly(Glu, Tyr) 4:1,” for “mg/ml casein,”, “a Filtermat A” for “a P30 filtermat”

The target of another assay is Abl(m) (Mus musculus, UniProt P00520). It is filed as biochemical. To be noted: read-out: percent residual activity of Abl(m). Here is the method: as §1
as §2, with “Abl (m)” for “Plk3 (h)”, “50 μM EAIYAAPFAKKK (SEQ ID NO:206),” for “2 mg/ml casein,”

The target of another assay is Blk(m) (Mus musculus, UniProt P16277). It is filed as biochemical. To be noted: read-out: percent residual activity of Blk(m). The protocol:
as §1
In a final reaction volume of 25 μl, Blk (m) (5-10 mU) is incubated with 50 mM Tris pH 7.5, 0.1 mM EGTA, 0.1 mM Na3VO4, 0.1% R-mercaptoethanol, 0.1 mg/ml poly(Glu, Tyr) 4:1, 10 mM MgAcetate and [gamma-33P-ATP] (specific activity approx. 500 cpm/pmol, concentration as required). The reaction is initiated by the addition of the MgATP mix. After incubation for 40 minutes at room temperature, the reaction is stopped by the addition of 5 μl of a 3% phosphoric acid solution. […]

Chain of Blk(m) (P16277 whole entry): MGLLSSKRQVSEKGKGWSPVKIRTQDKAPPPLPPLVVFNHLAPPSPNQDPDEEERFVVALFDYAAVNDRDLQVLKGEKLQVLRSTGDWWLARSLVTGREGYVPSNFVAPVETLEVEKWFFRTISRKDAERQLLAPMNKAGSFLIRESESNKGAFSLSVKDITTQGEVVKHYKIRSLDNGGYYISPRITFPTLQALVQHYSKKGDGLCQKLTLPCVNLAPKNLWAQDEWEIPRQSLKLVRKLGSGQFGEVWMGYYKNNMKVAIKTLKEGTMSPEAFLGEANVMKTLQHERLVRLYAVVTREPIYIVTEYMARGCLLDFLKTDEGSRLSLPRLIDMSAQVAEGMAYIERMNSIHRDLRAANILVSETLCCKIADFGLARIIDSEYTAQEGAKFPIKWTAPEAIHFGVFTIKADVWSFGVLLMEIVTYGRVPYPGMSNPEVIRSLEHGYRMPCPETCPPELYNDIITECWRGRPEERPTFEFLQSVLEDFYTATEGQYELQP
Chain of ROCK-II(h) (O75116 whole entry): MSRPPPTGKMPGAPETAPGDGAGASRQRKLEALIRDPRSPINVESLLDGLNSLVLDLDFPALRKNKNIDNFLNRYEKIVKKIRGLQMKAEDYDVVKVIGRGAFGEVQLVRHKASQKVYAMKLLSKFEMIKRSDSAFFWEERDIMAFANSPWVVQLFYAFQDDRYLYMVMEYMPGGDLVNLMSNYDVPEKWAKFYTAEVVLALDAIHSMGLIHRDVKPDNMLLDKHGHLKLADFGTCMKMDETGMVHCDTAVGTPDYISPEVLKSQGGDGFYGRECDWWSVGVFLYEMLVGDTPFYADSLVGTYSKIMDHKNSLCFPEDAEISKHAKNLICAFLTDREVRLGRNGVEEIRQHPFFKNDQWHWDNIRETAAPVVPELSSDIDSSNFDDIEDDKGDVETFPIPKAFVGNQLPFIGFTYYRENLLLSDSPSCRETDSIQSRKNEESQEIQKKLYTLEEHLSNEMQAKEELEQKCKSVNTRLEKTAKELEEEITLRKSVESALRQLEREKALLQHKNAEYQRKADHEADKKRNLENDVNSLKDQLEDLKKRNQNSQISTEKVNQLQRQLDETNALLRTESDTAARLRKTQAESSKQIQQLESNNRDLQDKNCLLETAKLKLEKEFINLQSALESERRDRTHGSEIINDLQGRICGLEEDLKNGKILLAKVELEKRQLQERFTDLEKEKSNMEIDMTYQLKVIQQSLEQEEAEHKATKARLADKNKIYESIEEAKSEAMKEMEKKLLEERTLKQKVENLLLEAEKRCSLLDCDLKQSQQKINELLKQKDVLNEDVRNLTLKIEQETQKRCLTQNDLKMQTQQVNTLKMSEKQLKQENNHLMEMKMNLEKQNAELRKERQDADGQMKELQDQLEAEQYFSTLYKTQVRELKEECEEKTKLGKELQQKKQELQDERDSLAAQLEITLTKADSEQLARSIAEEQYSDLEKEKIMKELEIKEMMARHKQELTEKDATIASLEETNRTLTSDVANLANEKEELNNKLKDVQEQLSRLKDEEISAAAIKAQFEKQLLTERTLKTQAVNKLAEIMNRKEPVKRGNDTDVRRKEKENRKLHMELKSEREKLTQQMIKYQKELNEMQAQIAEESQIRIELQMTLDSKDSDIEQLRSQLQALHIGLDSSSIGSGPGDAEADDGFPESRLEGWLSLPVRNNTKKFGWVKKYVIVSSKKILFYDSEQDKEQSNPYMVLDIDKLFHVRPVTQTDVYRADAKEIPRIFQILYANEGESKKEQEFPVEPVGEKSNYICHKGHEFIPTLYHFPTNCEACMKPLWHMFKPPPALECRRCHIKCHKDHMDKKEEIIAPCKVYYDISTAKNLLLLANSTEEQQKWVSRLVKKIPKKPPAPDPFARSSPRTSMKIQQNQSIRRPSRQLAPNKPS
Chain of Abl(m) (P00520 whole entry): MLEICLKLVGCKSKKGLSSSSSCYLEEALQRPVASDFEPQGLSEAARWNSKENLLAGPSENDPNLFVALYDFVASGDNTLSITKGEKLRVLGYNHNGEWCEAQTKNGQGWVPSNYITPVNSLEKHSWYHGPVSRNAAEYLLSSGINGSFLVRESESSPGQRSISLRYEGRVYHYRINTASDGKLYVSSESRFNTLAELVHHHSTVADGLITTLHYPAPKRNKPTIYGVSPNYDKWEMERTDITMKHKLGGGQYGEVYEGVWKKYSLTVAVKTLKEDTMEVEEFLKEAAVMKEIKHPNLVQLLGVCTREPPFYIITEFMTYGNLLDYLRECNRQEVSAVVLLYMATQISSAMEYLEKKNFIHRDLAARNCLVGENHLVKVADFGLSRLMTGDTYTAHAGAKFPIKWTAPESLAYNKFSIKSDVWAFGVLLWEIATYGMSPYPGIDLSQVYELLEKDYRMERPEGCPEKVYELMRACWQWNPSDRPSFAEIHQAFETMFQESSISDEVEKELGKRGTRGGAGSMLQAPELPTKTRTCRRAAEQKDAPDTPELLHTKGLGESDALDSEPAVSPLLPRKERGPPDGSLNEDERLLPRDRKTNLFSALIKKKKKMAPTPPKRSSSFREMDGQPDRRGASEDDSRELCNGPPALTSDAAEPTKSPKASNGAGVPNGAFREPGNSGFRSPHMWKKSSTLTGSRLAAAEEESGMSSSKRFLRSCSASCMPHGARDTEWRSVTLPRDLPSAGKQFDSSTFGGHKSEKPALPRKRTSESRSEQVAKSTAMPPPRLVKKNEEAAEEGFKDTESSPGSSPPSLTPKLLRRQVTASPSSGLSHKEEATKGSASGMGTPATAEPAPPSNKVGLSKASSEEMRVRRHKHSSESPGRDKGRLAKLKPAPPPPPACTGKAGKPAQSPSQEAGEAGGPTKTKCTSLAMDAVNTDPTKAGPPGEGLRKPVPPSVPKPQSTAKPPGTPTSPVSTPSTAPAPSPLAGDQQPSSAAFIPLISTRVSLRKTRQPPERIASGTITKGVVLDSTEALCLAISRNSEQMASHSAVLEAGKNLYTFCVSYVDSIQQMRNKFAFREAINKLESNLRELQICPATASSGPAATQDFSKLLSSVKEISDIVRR
Chain of Plk3(h) (Q9H4B4 whole entry): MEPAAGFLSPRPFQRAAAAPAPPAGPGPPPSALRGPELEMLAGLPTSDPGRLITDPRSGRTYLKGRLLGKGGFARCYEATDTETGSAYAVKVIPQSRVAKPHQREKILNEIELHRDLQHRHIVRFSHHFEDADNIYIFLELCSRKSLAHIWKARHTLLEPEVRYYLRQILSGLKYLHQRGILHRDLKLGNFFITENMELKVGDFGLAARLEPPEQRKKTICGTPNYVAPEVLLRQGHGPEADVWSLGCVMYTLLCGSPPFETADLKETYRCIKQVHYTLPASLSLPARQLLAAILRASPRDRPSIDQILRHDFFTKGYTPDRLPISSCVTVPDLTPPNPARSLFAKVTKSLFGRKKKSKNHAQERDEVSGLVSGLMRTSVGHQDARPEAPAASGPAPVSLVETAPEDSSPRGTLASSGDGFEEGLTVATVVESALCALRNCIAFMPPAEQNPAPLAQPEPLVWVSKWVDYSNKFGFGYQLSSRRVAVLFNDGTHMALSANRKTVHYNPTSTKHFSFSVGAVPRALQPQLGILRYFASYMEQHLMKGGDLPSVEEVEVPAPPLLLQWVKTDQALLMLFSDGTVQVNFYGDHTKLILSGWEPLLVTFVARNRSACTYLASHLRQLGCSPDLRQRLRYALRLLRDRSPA
Chain of MKK4(m) (P47809 whole entry): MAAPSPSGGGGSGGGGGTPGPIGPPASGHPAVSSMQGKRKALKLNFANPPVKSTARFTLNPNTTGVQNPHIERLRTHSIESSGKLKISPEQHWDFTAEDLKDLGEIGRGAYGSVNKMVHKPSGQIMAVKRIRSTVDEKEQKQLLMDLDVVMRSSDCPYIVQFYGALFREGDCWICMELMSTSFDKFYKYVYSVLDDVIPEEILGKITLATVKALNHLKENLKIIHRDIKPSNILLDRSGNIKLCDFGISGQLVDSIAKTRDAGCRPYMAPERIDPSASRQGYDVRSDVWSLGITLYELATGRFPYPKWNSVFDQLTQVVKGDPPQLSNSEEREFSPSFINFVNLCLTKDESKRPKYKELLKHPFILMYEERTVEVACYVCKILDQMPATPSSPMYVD
Chain of cKit(h) (P10721 26-976): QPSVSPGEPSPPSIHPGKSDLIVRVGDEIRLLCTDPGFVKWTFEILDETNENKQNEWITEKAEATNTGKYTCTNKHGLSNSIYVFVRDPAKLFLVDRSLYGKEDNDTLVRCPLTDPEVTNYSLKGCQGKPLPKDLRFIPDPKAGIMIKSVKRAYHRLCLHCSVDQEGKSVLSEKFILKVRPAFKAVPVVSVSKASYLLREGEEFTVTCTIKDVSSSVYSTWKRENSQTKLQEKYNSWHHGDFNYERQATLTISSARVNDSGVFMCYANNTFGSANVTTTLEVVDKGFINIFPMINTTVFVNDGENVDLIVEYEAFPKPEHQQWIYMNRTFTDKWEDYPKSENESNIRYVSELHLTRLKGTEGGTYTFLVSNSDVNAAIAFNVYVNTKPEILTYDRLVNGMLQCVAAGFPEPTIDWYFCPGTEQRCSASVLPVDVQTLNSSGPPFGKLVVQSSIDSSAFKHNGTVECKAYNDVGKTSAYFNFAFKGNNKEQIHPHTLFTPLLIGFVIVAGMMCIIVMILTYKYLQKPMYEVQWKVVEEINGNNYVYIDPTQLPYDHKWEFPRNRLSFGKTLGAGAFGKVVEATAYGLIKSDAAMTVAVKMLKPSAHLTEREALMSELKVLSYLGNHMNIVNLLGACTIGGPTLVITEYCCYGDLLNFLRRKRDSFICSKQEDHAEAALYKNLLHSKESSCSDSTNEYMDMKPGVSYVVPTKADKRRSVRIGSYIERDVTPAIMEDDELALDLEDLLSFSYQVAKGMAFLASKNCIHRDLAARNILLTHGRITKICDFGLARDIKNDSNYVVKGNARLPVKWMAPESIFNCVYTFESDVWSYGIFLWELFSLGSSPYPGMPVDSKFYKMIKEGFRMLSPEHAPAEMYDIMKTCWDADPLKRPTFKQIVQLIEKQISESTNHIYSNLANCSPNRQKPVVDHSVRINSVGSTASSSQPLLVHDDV

Turning to `CN1CCCC1CCNC(=O)c1cn2c3c(c(N4CCC(c5cnccn5)C4)c(F)cc3c1=O)Oc1cc3ccccc3cc1-2` (stereo not drawn) [Compound A-1], the remaining activity at 2.5 µM on MKK4(m) was 108%; on Plk3(h), 92%; at ROCK-II(h), 64%; on cKit(h), 111%; on Abl(m), 9%; at Blk(m), 117%. For the same molecule, the “inhibition of p70S6K” value with p70S6K(h) is given as “greater than 80%”. Also, the “percent residual activity of p70S6K(h)” value with p70S6K(h) turned out to be 18%.

On to `CC(=O)N1CCN(c2ccc3c(=O)c(C(=O)NCCN4CCCC4)c4n(C)c5ccccc5n4c3n2)CC1` [Compound B-1], for which the remaining activity at 2.5 µM at MKK4(m) was determined as 99%; at Plk3(h) it was 86%; on ROCK-II(h), 115%; on cKit(h), 114%; on Abl(m) it was 104%; at Blk(m), 106%. The “percent residual activity of p70S6K(h)” value in the assay with p70S6K(h) stood at 97%.
